Assay results published in patent US20070176143A1, “Stable ill-defined cubic nanosized particles in a ternary aqueous phase” (YISSYM RESEARCH DEVELOPMENT COMPANY OF THE HEBREW …, priority 2003, published 2007).

Description: Well ordered liquid crystals have many applications all utilizing their relative structured character and the very large surface area they posses.
(§1) 2 gr of GMO were melted by heating to about 50° C. In a separate vessel, 2 gr of GMO and lycopene (0.0085 gr) were placed. The vessel was closed and its contents were mixed well with vortex until all the lycopene dissolved. 0.5 gr ethanol was added and the combination further mixed. The vessel was placed in a bath at a temperature of 45° C. 2.5 gr water were added.
2 gr of GMO were melted by heating to about 50° C. In a separate vessel, 2 gr of GMO and 0.5 gr of ethanol were placed. The vessel was closed and its contents were mixed well with vortex. The vessel was placed in a bath at 45° C.
as §1, with “carbamazepine (0.044” for “lycopene (0.0085”, “carbamazepine” for “lycopene”
2 gr of GMO were melted by heating to about 50° C. In a separate vessel, 2 gr of GMO and phytosterol (0.2 gr) were placed. […] 0.5 gr ethanol was added and the combination further mixed. The vessel was placed in a bath at a temperature of 45° C. 2.5 gr water were added.

solubilization in an aqueous phase comprising the QL semi-ordered phase | Molecule
successfully solubilized | CC1=C[C@H](O)CC(C)(C)[C@H]1/C=C/C(C)=C/C=C/C(C)=C/C=C/C=C(C)/C=C/C=C(C)/C=C/C1=C(C)C[C@@H](O)CC1(C)C [leutin]
successfully solubilized | CC(C)=CCC/C(C)=C/C=C/C(C)=C/C=C/C(C)=C/C=C/C=C(C)/C=C/C=C(C)/C=C/C=C(\C)CCC=C(C)C [Lycopene]
successfully solubilized | CC1=C(/C=C/C(C)=C/C=C/C(C)=C/C=C/C=C(C)/C=C/C=C(C)/C=C/C2=C(C)CCCC2(C)C)C(C)(C)CCC1 [β-carotene]
all the phytosterol dissolved | phytosterol
successfully solubilized | NC(=O)N1c2ccccc2C=Cc2ccccc21 [carbamazapine, reference compound]
